In patent US20100267706A1, “Compounds, Compositions and Methods Comprising Pyridazine Derivatives” (Institute for OneWorld Health, priority 2009, published 2010):

Biological target: T1, CFTR (Homo sapiens, UniProt P13569)
T1 construct: host or cells: Human colonic T84 cells
Test: T84 assay (FLIPR membrane potential, forskolin/IBMX-stimulated CFTR channel activity)
Assay type: cell-based
Details: Human colonic T84 cells; average of at least 2 runs unless annotated n = 1
Method: (§1) For example, Human colonic T84 cells can be acquired from the European Collection of Cell Cultures (ECACC) and grown in standard culture conditions as described by the supplier. On the day before assay 25,000 T84 cells per well are plated into standard black walled, clear bottom 384-well assay plates in standard growth medium consisting of DMEM:F12 with 10% FBS and incubated overnight. On the day of the assay the plates are washed using a standard assay buffer (HBSS with 10 mM Hepes) and incubated for 15 minutes in serum free cell culture medium before the addition of a commercially available membrane potential sensitive fluorescent dye (FLIPR Red membrane potential dye, Molecular Devices Corporation). T84 cells are incubated with the FLIPR Red membrane potential dye for 45 minutes in the presence and absence of test compound before being transferred to a commercially available fluorescence imaging plate reader (FLIPR384, Molecular Devices Corporation). Fluorescence levels are monitored continuously every second for 150 seconds; after an initial 10 second baseline, CFTR channel activity is stimulated through the addition of 10 μM forskolin in the presence of 100 μM of the phosphodiesterase inhibitor iso-butyl-methylxanthine (IBMX). Addition of the forskolin leads to the activation of intracellular adenylyl cylase 1, elevating cAMP levels and results in the phosphorylation and opening of CFTR anion channels. CFTR channel opening causes chloride ion efflux and subsequent depolarization of the cells, which is measured by an increase in fluorescence. CFTR inhibitor compounds prevent cell depolarization and the associated increase in fluorescence.
as §1, with “Human colonic” for “For example, Human colonic”, “T84 cells are acquired from” for “T84 cells can be acquired from”, “(ECACC) and are grown in” for “(ECACC) and grown in”

T1 sequence (P13569 whole entry): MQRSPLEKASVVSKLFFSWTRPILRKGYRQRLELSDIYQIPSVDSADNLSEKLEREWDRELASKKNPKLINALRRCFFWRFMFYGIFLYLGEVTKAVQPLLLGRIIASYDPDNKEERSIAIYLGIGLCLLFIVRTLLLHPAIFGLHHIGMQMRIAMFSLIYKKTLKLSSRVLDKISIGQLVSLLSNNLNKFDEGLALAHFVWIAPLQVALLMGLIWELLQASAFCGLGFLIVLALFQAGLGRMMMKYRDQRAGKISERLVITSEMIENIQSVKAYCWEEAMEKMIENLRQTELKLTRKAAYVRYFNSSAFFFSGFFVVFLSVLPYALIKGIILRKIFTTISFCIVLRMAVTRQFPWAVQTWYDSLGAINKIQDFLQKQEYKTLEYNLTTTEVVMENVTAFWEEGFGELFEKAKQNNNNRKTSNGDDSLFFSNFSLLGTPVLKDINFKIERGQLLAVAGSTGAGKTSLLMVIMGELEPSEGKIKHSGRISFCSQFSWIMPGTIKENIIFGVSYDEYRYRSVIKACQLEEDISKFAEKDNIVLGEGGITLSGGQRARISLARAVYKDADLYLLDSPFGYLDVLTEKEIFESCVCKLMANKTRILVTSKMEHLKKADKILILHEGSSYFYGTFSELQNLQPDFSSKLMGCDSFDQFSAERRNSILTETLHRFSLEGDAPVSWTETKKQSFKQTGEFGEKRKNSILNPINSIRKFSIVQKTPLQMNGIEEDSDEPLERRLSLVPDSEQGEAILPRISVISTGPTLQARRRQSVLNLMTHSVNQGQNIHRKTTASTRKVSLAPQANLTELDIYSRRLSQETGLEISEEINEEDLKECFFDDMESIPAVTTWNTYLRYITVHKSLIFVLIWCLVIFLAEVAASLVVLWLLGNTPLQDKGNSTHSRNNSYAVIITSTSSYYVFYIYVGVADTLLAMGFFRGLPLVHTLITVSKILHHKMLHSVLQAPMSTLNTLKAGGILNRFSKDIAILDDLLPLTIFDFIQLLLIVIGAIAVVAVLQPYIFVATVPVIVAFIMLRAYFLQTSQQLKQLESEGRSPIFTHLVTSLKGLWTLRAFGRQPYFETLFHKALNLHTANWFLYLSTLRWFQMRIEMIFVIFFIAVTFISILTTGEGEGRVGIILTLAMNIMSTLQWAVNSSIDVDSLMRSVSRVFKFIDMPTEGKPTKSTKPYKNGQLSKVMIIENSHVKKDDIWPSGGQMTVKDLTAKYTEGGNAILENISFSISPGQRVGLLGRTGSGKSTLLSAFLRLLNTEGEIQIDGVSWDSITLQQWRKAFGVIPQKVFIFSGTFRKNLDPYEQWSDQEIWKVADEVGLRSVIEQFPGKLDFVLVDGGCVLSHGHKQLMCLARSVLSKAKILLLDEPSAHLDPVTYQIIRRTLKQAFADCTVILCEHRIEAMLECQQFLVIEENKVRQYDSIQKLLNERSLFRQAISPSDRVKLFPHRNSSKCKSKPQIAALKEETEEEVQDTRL

Structure (SMILES)	IC50
Oc1c(Cl)cc(-c2cc(N3CCN(Cc4cccc(C(F)(F)F)c4)CC3)c(OCCc3ccc(Cl)cc3)nn2)cc1Cl [Compound 1, 2,6-dichloro-4-(6-(4-chlorophenethoxy)-5-(4-(3-(trifluoromethyl)benzyl)piperazin-1-yl)pyridazin-3-yl)phenol]	27 µM
CN(C)CCCOc1ccc(CN2CCN(c3cc(-c4cc(Cl)c(O)c(Cl)c4)nnc3OCCc3ccc(Cl)cc3)CC2)cc1 [Compound 2, 2,6-Dichloro-4-(6-(4-chlorophenethoxy)-5-(4-(4-(3-(dimethylamino)propoxy)benzyl)piperazin-1-yl)pyridazin-3-yl)phenol]	1.8 µM
O=C(Cc1ccccn1)N1CCN(c2cc(-c3cc(Cl)c(O)c(Cl)c3)nnc2OCCc2ccc(Cl)cc2)CC1 [Compound 3, 1-(4-(3-(4-Chlorophenethoxy)-6-(3,5-dichloro-4-hydroxyphenyl)pyridazin-4-yl)piperazin-1-yl)-2-(pyridin-2-yl)ethanone]	18.1 µM
CS(=O)(=O)Nc1ccc(CNC(=O)c2cc(-c3cc(Cl)c(O)c(Cl)c3)nnc2OCCc2ccc(Cl)cc2)cc1 [Compound 4, 3-(4-Chlorophenethoxy)-6-(3,5-dichloro-4-hydroxyphenyl)-N-(4-(methylsulfonamido)benzyl)pyridazine-4-carboxamide]	17.5 µM
CCN1CCN(c2cc(-c3cc(Cl)c(O)c(Cl)c3)nnc2OCCc2ccc(Cl)cc2)CC1 [Compound 5, 2,6-dichloro-4-(6-(4-chlorophenethoxy)-5-(4-ethylpiperazin-1-yl)pyridazin-3-yl)phenol]	15.8 µM
O=C(NCc1cccc(C(F)(F)F)c1)c1cc(-c2cc(Cl)c(O)c(Cl)c2)nnc1OCCc1ccc(Cl)cc1 [Compound 6, 3-(4-chlorophenethoxy)-6-(3,5-dichloro-4-hydroxyphenyl)-N-(3-(trifluoromethyl)benzyl)pyridazine-4-carboxamide]	24.7 µM
O=C(NCc1ccc(C(F)(F)F)cc1)c1cc(-c2cc(Cl)c(O)c(Cl)c2)nnc1OCCc1ccc(Cl)cc1 [Compound 7, 3-(4-chlorophenethoxy)-6-(3,5-dichloro-4-hydroxyphenyl)-N-(4-(trifluoromethyl)benzyl)pyridazine-4-carboxamide]	16.5 µM
O=C(NCc1cc(F)cc(F)c1)c1cc(-c2cc(Cl)c(O)c(Cl)c2)nnc1OCCc1ccc(Cl)cc1 [Compound 8, 3-(4-chlorophenethoxy)-6-(3,5-dichloro-4-hydroxyphenyl)-N-(3,5-difluorobenzyl)pyridazine-4-carboxamide]	13 µM
O=C(NCc1cc(F)c(F)c(F)c1)c1cc(-c2cc(Cl)c(O)c(Cl)c2)nnc1OCCc1ccc(Cl)cc1 [Compound 9, 3-(4-chlorophenethoxy)-6-(3,5-dichloro-4-hydroxyphenyl)-N-(3,4,5-trifluorobenzyl)pyridazine-4-carboxamide]	8.06 µM
O=C(c1cc(-c2cc(Cl)c(O)c(Cl)c2)nnc1OCCc1ccc(Cl)cc1)N(CCO)Cc1ccc(F)cc1 [Compound 10, 3-(4-chlorophenethoxy)-6-(3,5-dichloro-4-hydroxyphenyl)-N-(4-fluorobenzyl)-N-(2-hydroxyethyl)pyridazine-4-carboxamide]	12.1 µM
O=C(c1cc(-c2cc(Cl)c(O)c(Cl)c2)nnc1OCCc1ccc(Cl)cc1)N(CCO)Cc1ccccc1Cl [Compound 12, N-(2-chlorobenzyl)-3-(4-chlorophenethoxy)-6-(3,5-dichloro-4-hydroxyphenyl)-N-(2-hydroxyethyl)pyridazine-4-carboxamide]	10.3 µM
CCCN(CCO)C(=O)c1cc(-c2cc(Cl)c(O)c(Cl)c2)nnc1OCCc1ccc(Cl)cc1 [Compound 13, 3-(4-chlorophenethoxy)-6-(3,5-dichloro-4-hydroxyphenyl)-N-(2-hydroxyethyl)-N-propylpyridazine-4-carboxamide]	28.6 µM
Oc1c(Cl)cc(-c2cc(N3CCN(Cc4ccc(OCCN5CCOCC5)cc4)CC3)c(OCCc3ccc(Cl)cc3)nn2)cc1Cl [Compound 14, 2,6-dichloro-4-(6-(4-chlorophenethoxy)-5-(4-(4-(2-morpholinoethoxy)benzyl)piperazin-1-yl)pyridazin-3-yl)phenol]	9.45 µM
CN(C)CCOc1ccc(CN2CCN(c3cc(-c4cc(Cl)c(O)c(Cl)c4)nnc3OCCc3ccc(Cl)cc3)CC2)cc1 [Compound 15, 2,6-dichloro-4-(6-(4-chlorophenethoxy)-5-(4-(4-(2-(dimethylamino)ethoxy)benzyl)piperazin-1-yl)pyridazin-3-yl)phenol]	3.05 µM
CN(C)CCCOc1cccc(CN2CCN(c3cc(-c4cc(Cl)c(O)c(Cl)c4)nnc3OCCc3ccc(Cl)cc3)CC2)c1 [Compound 16, 2,6-dichloro-4-(6-(4-chlorophenethoxy)-5-(4-(3-(3-(dimethylamino)propoxy)benzyl)piperazin-1-yl)pyridazin-3-yl)phenol]	9.85 µM
CN(C)CCCOc1ccccc1CN1CCN(c2cc(-c3cc(Cl)c(O)c(Cl)c3)nnc2OCCc2ccc(Cl)cc2)CC1 [Compound 17, 2,6-dichloro-4-(6-(4-chlorophenethoxy)-5-(4-(2-(3-(dimethylamino)propoxy)benzyl)piperazin-1-yl)pyridazin-3-yl)phenol]	3.8 µM
Oc1c(Cl)cc(-c2cc(N3CCN(Cc4ccc(OCCCN5CCC(F)(F)CC5)cc4)CC3)c(OCCc3ccc(Cl)cc3)nn2)cc1Cl [Compound 18, 2,6-dichloro-4-(6-(4-chlorophenethoxy)-5-(4-(4-(3-(4,4-difluoropiperidin-1-yl)propoxy)benzyl)piperazin-1-yl)pyridazin-3-yl)phenol]	7.5 µM
Oc1c(Cl)cc(-c2cc(N3CCN(Cc4ccc(OCCCN5CCSCC5)cc4)CC3)c(OCCc3ccc(Cl)cc3)nn2)cc1Cl [Compound 19, 2,6-dichloro-4-(6-(4-chlorophenethoxy)-5-(4-(4-(3-thiomorpholinopropoxy)benzyl)piperazin-1-yl)pyridazin-3-yl)phenol]	17 µM
CCN(Cc1ccccc1)C(=O)c1cc(-c2cc(Cl)c(O)c(Cl)c2)nnc1N(CC)Cc1ccccc1 [Compound 20, N-benzyl-3-(benzyl(ethyl)amino)-6-(3,5-dichloro-4-hydroxyphenyl)-N-ethylpyridazine-4-carboxamide]	12 µM
NC(=O)C1CCN(CCCOc2ccc(CN3CCN(c4cc(-c5cc(Cl)c(O)c(Cl)c5)nnc4OCCc4ccc(Cl)cc4)CC3)cc2)CC1 [Compound 21, 1-(3-(4-((4-(3-(4-chlorophenethoxy)-6-(3,5-dichloro-4-hydroxyphenyl)pyridazin-4-yl)piperazin-1-yl)methyl)phenoxy)propyl)piperidine-4-carboxamide]	7.33 µM
CN1CCN(CCOc2ccc(CN3CCN(c4cc(-c5cc(Cl)c(O)c(Cl)c5)nnc4OCCc4ccc(Cl)cc4)CC3)cc2)CC1 [Compound 22, 2,6-dichloro-4-(6-(4-chlorophenethoxy)-5-(4-(4-(2-(4-methylpiperazin-1-yl)ethoxy)benzyl)piperazin-1-yl)pyridazin-3-yl)phenol]	13.2 µM
COc1cc(CN2CCN(c3cc(-c4cc(Cl)c(O)c(Cl)c4)nnc3OCCc3ccc(Cl)cc3)CC2)ccc1OCCN1CCN(C)CC1 [Compound 23, 2,6-dichloro-4-(6-(4-chlorophenethoxy)-5-(4-(3-methoxy-4-(2-(4-methylpiperazin-1-yl)ethoxy)benzyl)piperazin-1-yl)pyridazin-3-yl)phenol]	2.33 µM
O=C(c1cc(-c2cc(Cl)c(O)c(Cl)c2)nnc1OCCc1ccc(Cl)cc1)N(CCO)Cc1cccnc1 [Compound 24, 3-(4-chlorophenethoxy)-6-(3,5-dichloro-4-hydroxyphenyl)-N-(2-hydroxyethyl)-N-(pyridin-3-ylmethyl)pyridazine-4-carboxamide]	19.4 µM
O=C(c1cc(-c2cc(Cl)c(O)c(Cl)c2)nnc1OCCc1ccc(Cl)cc1)N(CCO)Cc1ccccn1 [Compound 25, 3-(4-chlorophenethoxy)-6-(3,5-dichloro-4-hydroxyphenyl)-N-(2-hydroxyethyl)-N-(pyridin-2-ylmethyl)pyridazine-4-carboxamide]	14.7 µM
O=C(c1cc(-c2cc(Cl)c(O)c(Cl)c2)nnc1OCCc1ccc(Cl)cc1)N(Cc1ccccc1)CC(F)(F)F [Compound 26, N-benzyl-3-(4-chlorophenethoxy)-6-(3,5-dichloro-4-hydroxyphenyl)-N-(2,2,2-trifluoroethyl)pyridazine-4-carboxamide]	23.5 µM
